These results are taken from ChEMBL document CHEMBL3108745, “Synthesis and structure-activity relationship of 3-hydroxypyridine-2-thione-based histone deacetylase inhibitors” (J Med Chem, 2013).

Activity calls are given as the source filed them. The rule behind the calls is not given here.

One data set has as its system Jurkat. Kind of data set: cells. The data set is classed as functional, cell-based. The settings on record: Homo sapiens, 72 h.
The test system of a further data set is Vero. The data set is described as follows: Cytotoxicity against African green monkey Vero cells assessed as growth inhibition after 72 hrs by MTS assay. Format: cell-based. The settings on record: Chlorocebus sabaeus.
The next data set deals with LNCaP. The data set is described as follows: cells. The settings on record: Homo sapiens, 72 h.
The target in data set [1] is Histone deacetylase 1 (Homo sapiens) (UniProt Q13547). The data set is described as follows: Inhibition of HDAC1 (unknown origin) expressed in Escherichia coli BL21 (DE3) using GRKacFGC as substrate at 10 nM to 1 mM after 60 mins by SAMDI mass spectrometric analysis.
Sequence of Histone deacetylase 1 (Homo sapiens) (Q13547 whole entry): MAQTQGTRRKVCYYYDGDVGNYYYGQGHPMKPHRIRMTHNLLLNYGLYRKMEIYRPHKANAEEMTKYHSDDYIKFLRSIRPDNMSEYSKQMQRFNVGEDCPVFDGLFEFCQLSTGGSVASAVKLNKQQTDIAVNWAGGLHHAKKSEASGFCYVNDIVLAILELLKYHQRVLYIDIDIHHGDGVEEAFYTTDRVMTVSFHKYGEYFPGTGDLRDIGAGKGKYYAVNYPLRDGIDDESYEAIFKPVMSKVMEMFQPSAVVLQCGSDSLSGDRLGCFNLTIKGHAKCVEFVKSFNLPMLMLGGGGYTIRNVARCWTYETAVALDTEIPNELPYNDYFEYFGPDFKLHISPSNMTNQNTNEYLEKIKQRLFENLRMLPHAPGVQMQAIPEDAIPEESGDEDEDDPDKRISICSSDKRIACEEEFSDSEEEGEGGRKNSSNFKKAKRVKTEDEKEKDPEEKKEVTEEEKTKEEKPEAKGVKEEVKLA
For data set [2], the target named is T1, Histone deacetylase 8 (Homo sapiens) (UniProt Q9BY41).
T1 sequence (whole entry): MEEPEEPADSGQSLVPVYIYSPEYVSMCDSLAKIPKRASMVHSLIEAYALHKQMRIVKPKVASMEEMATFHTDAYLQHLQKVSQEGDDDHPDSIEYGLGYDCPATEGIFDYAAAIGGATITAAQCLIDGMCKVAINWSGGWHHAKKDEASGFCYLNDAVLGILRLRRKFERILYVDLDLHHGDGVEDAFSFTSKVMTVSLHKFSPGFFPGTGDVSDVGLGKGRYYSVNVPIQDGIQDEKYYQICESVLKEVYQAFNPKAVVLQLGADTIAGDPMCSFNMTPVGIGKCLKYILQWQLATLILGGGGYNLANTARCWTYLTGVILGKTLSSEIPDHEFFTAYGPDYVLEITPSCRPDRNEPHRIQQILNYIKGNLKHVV
Kind of data set: Inhibition of HDAC8 catalytic domain (unknown origin) expressed in Escherichia coli BL21 (DE3) using GRKacFGC as substrate at 10 nM to 1 mM after 60 mins by SAMDI mass spectrometric analysis.

The target in data set [3] is T2, Protein deacetylase HDAC6 (Homo sapiens) (UniProt Q9UBN7).
T2 sequence (whole entry): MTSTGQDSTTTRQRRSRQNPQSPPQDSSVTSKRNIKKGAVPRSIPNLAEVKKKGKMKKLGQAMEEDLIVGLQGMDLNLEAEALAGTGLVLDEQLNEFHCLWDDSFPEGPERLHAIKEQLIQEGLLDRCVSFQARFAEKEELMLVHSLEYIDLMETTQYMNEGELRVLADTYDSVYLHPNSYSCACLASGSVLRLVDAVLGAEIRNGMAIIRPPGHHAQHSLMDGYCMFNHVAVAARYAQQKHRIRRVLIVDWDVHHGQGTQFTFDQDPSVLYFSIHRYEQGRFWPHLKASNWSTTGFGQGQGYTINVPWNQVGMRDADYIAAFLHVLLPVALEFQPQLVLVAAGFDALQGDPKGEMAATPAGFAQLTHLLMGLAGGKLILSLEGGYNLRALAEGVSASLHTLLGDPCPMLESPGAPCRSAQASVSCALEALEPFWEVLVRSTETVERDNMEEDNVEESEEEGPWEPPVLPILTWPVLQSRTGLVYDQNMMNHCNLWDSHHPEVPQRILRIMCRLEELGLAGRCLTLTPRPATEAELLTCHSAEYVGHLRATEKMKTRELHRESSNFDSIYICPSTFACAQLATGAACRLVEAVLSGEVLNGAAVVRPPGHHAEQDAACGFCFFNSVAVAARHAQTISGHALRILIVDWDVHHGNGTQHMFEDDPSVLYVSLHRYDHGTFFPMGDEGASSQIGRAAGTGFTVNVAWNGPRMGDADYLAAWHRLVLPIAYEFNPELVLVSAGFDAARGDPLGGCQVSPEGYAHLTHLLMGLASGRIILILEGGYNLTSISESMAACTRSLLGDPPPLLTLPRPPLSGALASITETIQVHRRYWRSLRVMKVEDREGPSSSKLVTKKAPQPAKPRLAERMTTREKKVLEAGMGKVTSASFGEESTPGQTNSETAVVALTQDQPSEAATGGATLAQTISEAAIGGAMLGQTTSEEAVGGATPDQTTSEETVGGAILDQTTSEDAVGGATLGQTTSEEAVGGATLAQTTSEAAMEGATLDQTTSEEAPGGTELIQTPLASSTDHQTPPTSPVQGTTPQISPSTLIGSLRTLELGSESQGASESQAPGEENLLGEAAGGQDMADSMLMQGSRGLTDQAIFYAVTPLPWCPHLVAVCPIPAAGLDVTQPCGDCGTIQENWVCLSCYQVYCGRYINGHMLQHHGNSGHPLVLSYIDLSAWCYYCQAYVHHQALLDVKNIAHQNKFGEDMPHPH
Kind of data set: Inhibition of HDAC6 (unknown origin) expressed in Escherichia coli BL21 (DE3) using GRKacYGC as substrate at 10 nM to 1 mM after 60 mins by SAMDI mass spectrometric analysis.

In data set [4] the target is T3, Protein deacetylase HDAC6 (Homo sapiens, UniProt Q9UBN7).
T3 sequence (Q9UBN7 whole entry): T2 sequence (whole entry)
Kind of data set: Inhibition of HDAC6 (unknown origin) expressed in Escherichia coli BL21 (DE3) using GRKacYGC as substrate after 60 mins by SAMDI mass spectrometric analysis.

A further data set concerns the target T4, Histone deacetylase 8 (Homo sapiens, UniProt Q9BY41).
T4 sequence (Q9BY41 whole entry): T1 sequence (whole entry)
Kind of data set: Inhibition of HDAC8 catalytic domain (unknown origin) expressed in Escherichia coli BL21 (DE3) using GRKacFGC as substrate after 60 mins by SAMDI mass spectrometric analysis.

Data set [5] has as its target Histone deacetylase 1 (Homo sapiens) (UniProt Q13547). Kind of data set: Inhibition of HDAC1 (unknown origin) expressed in Escherichia coli BL21 (DE3) using GRKacFGC as substrate at 10 uM after 60 mins by SAMDI mass spectrometric analysis relative to control.
The target of data set [6] is T2, Protein deacetylase HDAC6 (Homo sapiens). Kind of data set: Inhibition of HDAC6 (unknown origin) expressed in Escherichia coli BL21 (DE3) using GRKacYGC as substrate at 10 uM after 60 mins by SAMDI mass spectrometric analysis relative to control.
Data set [7] can be described thus: Aqueous solubility of the compound […] at room temperature by UV-vis spectrophotometric analysis. The data set is classed as physicochemical.
The subject of a further data set is DU-145. The data set is described as follows: cells. Format: functional, cell-based. The following applies: Homo sapiens, DU-145, 72 h.
The nature of data set [8]: Cytotoxicity against human Jurkat gamma1 cells assessed as growth inhibition after 72 hrs by MTS assay. Format: functional, cell-based.

Description for DU-145: Cytotoxicity against androgen-independent human DU145 cells assessed as growth inhibition after 72 hrs by MTS assay
Description for Jurkat: Cytotoxicity against human Jurkat cells assessed as growth inhibition after 72 hrs by MTS assay
Description for LNCaP: Cytotoxicity against androgen-dependent human LNCAP cells assessed as growth inhibition after 72 hrs by MTS assay

`CN1CCc2c(c3ccccc3n2Cc2ccc(C(=O)NO)cc2)C1` [TUBASTATIN A]: the results for the half-inhibitory concentration (IC50) in the data set on Jurkat, in the data set with Vero and in the data set with LNCaP were 3.38 µM, > 20 µM and 10.9 µM, respectively.

With `N#Cc1ccc(-c2cn(CCCCCn3cccc(O)c3=O)nn2)cc1`, the inhibition entry in data set [1], in [2] and in data set [3] was “inactive” in each case.

With `Cc1ccccc1-c1cn(CCCCCn2cccc(O)c2=O)nn1`, the inhibition result in [1], in data set [2] and in data set [3] was “inactive” each time.

For `Cc1ccc(-c2cn(CCCCCn3cccc(O)c3=S)nn2)cc1`, the IC50 in data set [4] is 0.807 µM; against Histone deacetylase 8, 2.53 µM. Moreover, the inhibition in [5] is < 20%.

On to `O=c1c(O)cccn1CCCCCn1cc(-c2ccccc2)nn1`, for which the inhibition entry in [1], in data set [2] and in [3] was “inactive” throughout.

Consider `O=c1c(O)cccn1CCCCCCCn1cc(-c2ccccc2)nn1`, for which the inhibition entry in data set [1], in data set [2] and in [3] was “inactive” throughout.

As to `Cc1cccc(-c2cn(CCCCCn3cccc(O)c3=S)nn2)c1`, the IC50 in [4] is 1.1 µM; against Histone deacetylase 8, 1.66 µM. Besides, the inhibition in data set [5] is < 20%.

With `CN(C)c1ccc(-c2cn(CCCCCn3cccc(O)c3=O)nn2)cc1`, the inhibition entry in data set [1], in [2] and in [3] was “inactive” in each case.

On to `Cc1ccc(-c2cn(CCCCCn3cccc(O)c3=O)nn2)cc1`, for which the inhibition result in data set [1], in data set [2] and in data set [3] was “inactive” in each case.

For `CN(C)c1ccc(-c2cn(CCCCCn3cccc(O)c3=S)nn2)cc1`, the inhibition in data set [5] was < 20%.

Turning to `O=c1c(O)cccn1CCCCn1cc(-c2ccccc2)nn1`, the inhibition entry in data set [1], in [2] and in data set [3] was “inactive” each time.

As for `O=c1c(O)cccn1CCCn1cc(-c2ccccc2)nn1`, the inhibition entry in data set [1], in data set [2] and in data set [3] was “inactive” each time.

Turning to `Oc1cccn(CCCCCCn2cc(-c3ccccc3)nn2)c1=S`, the inhibition in [6] is 22%; in data set [5], < 20%. The molecule also showed a half-maximal inhibitory concentration (IC50) against Histone deacetylase 8 of 6.75 µM.

With `O=c1c(O)cccn1CCn1cc(-c2ccccc2)nn1`, the inhibition result in data set [1], in data set [2] and in data set [3] was “inactive” throughout.

On to `N#Cc1ccc(-c2cn(CCCCCn3cccc(O)c3=S)nn2)cc1`, for which, in data set [5], the inhibition is < 20%.

`Oc1cccn(CCCn2cc(-c3ccccc3)nn2)c1=S`: the IC50 in data set [4] is 3.63 µM. Besides, the inhibition in data set [5] is < 20%.

Turning to `O=c1c(O)cccn1CCCCCCn1cc(-c2ccccc2)nn1`, the inhibition result in data set [1], in data set [2] and in data set [3] was “inactive” throughout.

Regarding `Oc1cccn(CCn2cc(-c3ccccc3)nn2)c1=S`, the inhibition was 14% in [6] and < 20% in [5].

Consider `Cc1ccccc1-c1cn(CCCCCn2cccc(O)c2=S)nn1`, for which the solubility entry in [7] is recorded as “soluble”. Also, the IC50 in [4] turned out to be 0.637 µM; against Histone deacetylase 8 it was 2.4 µM; in the data set with Jurkat it was 5.18 µM; in the data set with DU-145 it was 11.1 µM; with LNCaP, 4.95 µM. In data set [5], the inhibition was < 20%.

Consider `N#Cc1ccc(-c2cn(CCCCCn3cccc(O)c3=S)nn2)cc1C(F)(F)F`, for which, in data set [5], the inhibition was < 20%.

`Oc1cccn(CCCCn2cc(-c3ccccc3)nn2)c1=S`: the IC50 in [4] stood at 1.08 µM; against Histone deacetylase 8, 3.3 µM. Further, the inhibition in data set [5] is < 20%.

In the case of `Cc1cccc(-c2cn(CCCCCn3cccc(O)c3=O)nn2)c1`, the inhibition result in data set [1], in data set [2] and in data set [3] was “inactive” throughout.

With `N#Cc1cccc(-c2cn(CCCCCn3cccc(O)c3=O)nn2)c1`, the inhibition result in data set [1], in data set [2] and in data set [3] was “inactive” each time.

As to `Oc1cccn(CCCCCCCn2cc(-c3ccccc3)nn2)c1=S`, in data set [7], the solubility entry is given as “soluble”. The IC50 in data set [4] was 0.955 µM; against Histone deacetylase 8, 1.38 µM; in [8], > 20 µM; in the data set with Jurkat, 9.04 µM; in the data set with DU-145, 17.7 µM; in the data set on LNCaP, 11 µM. Also, the inhibition in data set [5] was < 20%.

With `N#Cc1ccc(-c2cn(CCCCCn3cccc(O)c3=O)nn2)cc1C(F)(F)F`, the inhibition result in data set [1], in data set [2] and in data set [3] was “inactive” in each case.

As for `Oc1cccn(Cc2cn(-c3ccccc3)nn2)c1=S`, the inhibition is 41% in [6] and < 20% in data set [5].
